Measurements: US20210290581A1, “NEUROREGENERATION IMPROVED BY KETONE” (UNIVERSITY OF SOUTH FLORIDA, priority 2016, published 2021)

Columns and labels:
rat primary neurons [1] = assay: immunofluorescence staining of the scratch assay (cell nuclei, Beta tubulin, synapsins); format: cell-based, Sprague Dawley rats; settings: 2 mM; after 24 hours; 10×, 20×, 60×; compared to control
Protocol: (§1) Cortical neurons from embryonic (E18) Sprague Dawley rats were isolated and cultured as described in Katnic, Guerrero et al. 2006. Briefly, excised brains were digested with 0.25% trypsin. Isolated cells were suspended in DMEM supplemented with fetal bovine serum (FBS, 10%, heat inactivated), penicillin (100 IU/ml), streptomycin ([…]) and amphotericin B1 ([…]) (Antibiotic/Antimycotic) and plated on poly-L-lysine coated coverslips. Following 24 hour incubation, the DMEM solution was replaced with Neurobasal media supplemented with B-27 (10 ml) and 0.5 mM L-glutamine. 3 week old rat primary neurons were exposed to 2 mM R,S-Sodium-3-hydroxibutyrate. The cell monolayer was scraped with a P100 pipette tip to create a scratch. Cell debris was removed by washing with culture medium. 100 snapshots were taken of the cell migration/cell regeneration into the scratch space over 24 hours by CytoSmart system.
The primary neurons underwent immunofluorescence staining. This fluorescence imaging on the scratch assay (after 24 hours/3-week old primary neurons) can be seen in FIGS. 6A-6B, 7A-7B, 8A-8B, and 9A-9B. The images have been lightened for illustrative purposes. Each of these figures includes four (4) images, labeled as I-IV. […]

rat primary neurons [2] = assay: scratch assay in primary neuronal cell cultures followed for 24 hours with CytoSmart system; format: cell-based, Sprague Dawley rats; settings: 2 mM
Protocol: Ketone bodies serve as alternative fuel for the brain when glucose availability is limited. In humans, BHB is synthesized in the liver from acetoacetate, the first ketone produced in the fasting state. Its biosynthesis is catalyzed by the enzyme beta-hydroxybutyrate dehydrogenase. The effect of ketone bodies on cell regeneration in primary neuronal cell cultures was tested by using a scratch assay that was followed for 24 hours with a CYTOSMART system.
as §1

CC(O)CC(=O)[O-].[Na+] (centres unmarked) [R,S-Sodium-3-hydroxibutyrate]
cell nuclei visible around the regeneration site and in the scratch area (rat primary neurons [1]): More cell nuclei are visible around the regeneration site
density of synapsins and tubulin at the regeneration site (rat primary neurons [1]): higher density of synapsins and tubulin
DAPI stained cell nuclei in the scratch space area (rat primary neurons [2]; 24 hours, 20× (p=0.01) and 10× (p=0.0004) magnification, versus control): significantly more DAPI stained cell nuclei
increase in cell coverage per 24 hours (rat primary neurons [2]; 24 hours, control about 0.9%): about 3.3%
cell migration and regeneration of the damaged area (rat primary neurons [2]; over the 24-hour period, versus control): more intense cell migration and regeneration of the damaged area
